B1: EST enzyme: recombinant human liver estrogen sulfotransferase (SEQ ID NO:2) expressed in COS-1 cells (protein)
chain: MNSELDYYEKFEEVHGILMYKDFVKYWDNVEAFQARPDDLVIATYPKSGTTWVSEIVYMIYKEGDVEKCKEDVIFNRIPFLECRKENLMNGVKQLDEMNSPRIVKTHLPPELLPASFWEKDCKIIYLCRNAKDVAVSFYYFFLMVAGHPNPGSFPEFVEKFMQGQVPYGSWYKHVKSWWEKGKSPRVLFLFYEDLKEDIRKEVIKLIHFLERKPSEELVDRIIHHTSFQEMKNNPSTNYTTLPDEIMNQKLSPFMRKGITGDWKNHFTVALNEKFDKHYEQQMKESTLKFRTEI

Tests used:
[1] = molecular target: T1, protein encoded by the human liver EST cDNA (Homo sapiens, UniProt P49888); assay: ST enzymatic activity after transfection of COS-1 cells with human liver EST cDNA in p91023(B); assay type: biochemical; conditions: for sulfation catalyzed by the protein encoded by the human liver EST cDNA: approximate values, transfected COS-1 cells; for ST enzymatic activity, EST cDNA, Average: average of two experiments; for ST enzymatic activity, EST cDNA, Average / ST enzymatic activity, EST cDNA, Expt. 1: HSS of transfected COS-1 cells
T1 construct: made in house; host or cells: COS-1 (ATCC CRL-1650) cells transiently transfected with EST-p91023(B); 100,000 x g supernatant used
T1 sequence (P49888 1-294): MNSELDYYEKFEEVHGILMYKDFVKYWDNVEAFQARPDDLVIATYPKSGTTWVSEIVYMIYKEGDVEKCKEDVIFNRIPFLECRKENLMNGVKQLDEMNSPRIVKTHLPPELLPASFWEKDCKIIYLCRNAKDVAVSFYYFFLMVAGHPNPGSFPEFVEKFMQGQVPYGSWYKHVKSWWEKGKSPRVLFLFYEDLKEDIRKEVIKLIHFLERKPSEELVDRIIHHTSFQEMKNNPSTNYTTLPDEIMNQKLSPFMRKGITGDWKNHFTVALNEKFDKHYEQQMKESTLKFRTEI
Method: COS-1 (ATCC No. CRL-1650) cells were transfected with an EST cDNA expression construct in the eukaryotic expression vector p91023(B) as well as with vector alone using the DEAE-dextran method (H. Luthman et al., Nucleic Acids Res., 11, 1295-1308 (1983)). Specifically, the COS-1 cells were plated in 100-mm dishes in Dulbecco's modified Eagle's medium (DMEM) supplemented with 10% fetal calf serum (FCS) at a density of 1.2×10^6 cells/dish, and were grown overnight. The EST-p91023(B)construct, a control human liver DHEA ST-p91023(B) construct, p91023(B) with no insert, or only buffer were mixed with DEAE-dextran and DMEM and were added to the cell culture dishes (J. H. McCutchan et al., J. Natl. Cancer Inst., 41, 351 (1968); R. J. Kaufman et al., Mol. Cell. Biol., 2, 946 (1989)). After 1 hour, the DEAE-dextran solution was replaced for 2 minutes by DMEM that contained 10% dimethylsulfoxide (DMSO), followed by 0.1 mM chloroquine in DMEM for 2 hours (H. Luthman et al., Nucleic Acids Res., 11, 1295 (1983)). Cells were then grown for 48 hours in DMEM supplemented with 10% FCS. After harvesting, cell pellets were washed with 5 ml of phosphate buffered saline (PBS) and were homogenized for 30 seconds in 2 ml of 5 mM potassium phosphate buffer, pH 6.5. The homogenates were centrifuged at 12,000-15,000×g for 15 minutes at 4° C., and supernatants were collected and centrifuged at 100,000×g for 1 hour at 4° C. Five μl aliquots of the 100,000×g "high-speed supernatants" (HSS) were assayed for ST enzymatic activities (Example IV).
ST activities were measured in preparations of transfected COS- 1 cells using DHEA, 4- nitrophenol and dopamine, model substrates for DHEA ST, TS PST and TL PST, respectively (Example IV). The assays were performed under optimal conditions for the measurement of these three enzyme activities in human liver preparations (N. R. C. Campbell et al., Biochem. Pharmacol., 36, 1435-1446 (1987); J. S. Hernandez et al., Drug Metab. Dispos., 20, 413-422 (1992), both of which are incorporated herein by reference). The sulfation of estrone was measured using optimal conditions for the assay of EST activity of human EST enzyme (Example III(c)).
Estrone was used as the substrate to determine optimal assay conditions and, subsequently, to characterize the properties of human EST enzyme. […] Mg^2+ is known to increase the activities of several ST enzymes (J. S. Hernandez et al., Drug Metab. Dispos., 20, 413-422 (1992); I. A. Aksoy et al., Druc, Metab. Dispos., 21, 268-276 (1993)). […]

[2] = molecular target: T2, recombinant human liver DHEA ST enzyme (Homo sapiens, UniProt Q06520); assay: Substrate kinetics (apparent Km), COS-1 expressed DHEA ST enzyme; assay type: biochemical; parameters: made in house; host or cells: COS-1 cells transiently transfected with human liver DHEA ST-p91023(B); 100,000 x g supernatant used; conditions: compound as sulfate acceptor substrate; estrone 0.2 to 100 μM, DHEA 0.06 to 10 μM
T2 sequence (Q06520 1-285): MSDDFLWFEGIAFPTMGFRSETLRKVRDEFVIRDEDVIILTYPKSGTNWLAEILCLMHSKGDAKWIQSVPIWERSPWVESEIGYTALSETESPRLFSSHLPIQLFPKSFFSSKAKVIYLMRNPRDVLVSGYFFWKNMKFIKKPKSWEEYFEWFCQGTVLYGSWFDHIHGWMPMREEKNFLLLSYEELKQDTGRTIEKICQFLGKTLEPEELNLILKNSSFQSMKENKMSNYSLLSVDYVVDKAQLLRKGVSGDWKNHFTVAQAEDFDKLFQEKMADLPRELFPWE
Method: (§1) Total reaction assay volume was about 200 μl . […] The tubes were vortexed after each addition.
(§2) Substrate kinetic studies designed to estimate apparent Km values were performed utilizing the EST and DHEA ST activity assays described above and in Example III. Since human liver EST enzyme and DHEA ST enzyme can both catalyze the sulfation of steroids, these studies presented an opportunity to determine apparent Km values of the two enzymes with estrone and DHEA as substrates. Both enzyme preparations were tested with a range of estrone and DHEA concentrations (Table III).
(§3) Apparent Km values were calculated by the method of Wilkinson (Biochem. J., 80, 324-332 (1961)) with a computer program written by Cleland (Nature, 198, 463-465 (1963)).

[3] = molecular target: T3, recombinant human liver EST enzyme (Homo sapiens, UniProt P49888); assay: Substrate kinetics (apparent Km), COS-1 expressed EST enzyme; assay type: biochemical; parameters: made in house; host or cells: COS-1 (ATCC CRL-1650) cells transiently transfected with EST-p91023(B); 100,000 x g supernatant used; conditions: compound as sulfate acceptor substrate; estrone 0.01 to 0.1 μM, DHEA 0.0125 to 32 μM
T3 sequence (P49888 1-294): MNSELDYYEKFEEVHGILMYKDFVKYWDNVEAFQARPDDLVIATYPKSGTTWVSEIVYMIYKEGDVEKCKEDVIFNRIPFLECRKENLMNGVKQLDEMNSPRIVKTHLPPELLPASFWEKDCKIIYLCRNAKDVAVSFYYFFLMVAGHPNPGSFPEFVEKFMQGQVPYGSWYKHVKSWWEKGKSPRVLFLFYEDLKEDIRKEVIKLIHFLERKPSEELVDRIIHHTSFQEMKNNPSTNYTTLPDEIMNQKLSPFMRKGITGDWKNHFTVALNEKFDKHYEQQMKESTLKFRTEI
Method: as §1, §2, §3

human EST enzyme = molecular target: T4, human EST enzyme (Homo sapiens, UniProt P49888); assay: Preferred substrate and optimal assay conditions for recombinant human EST enzyme; assay type: biochemical
T4 sequence (P49888 1-294): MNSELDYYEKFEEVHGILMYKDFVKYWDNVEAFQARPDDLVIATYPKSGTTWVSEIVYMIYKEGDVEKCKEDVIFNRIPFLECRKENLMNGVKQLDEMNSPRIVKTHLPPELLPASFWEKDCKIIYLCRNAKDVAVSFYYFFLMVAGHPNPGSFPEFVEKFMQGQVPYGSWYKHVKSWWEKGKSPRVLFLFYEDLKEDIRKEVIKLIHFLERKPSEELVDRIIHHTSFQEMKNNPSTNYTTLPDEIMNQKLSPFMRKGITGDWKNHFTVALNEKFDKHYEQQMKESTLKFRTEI
Method: Estrone was used as the substrate to determine optimal assay conditions and, subsequently, to characterize the properties of human EST enzyme. […] The optimal pH for the measurement of estrone ST activity with the expressed protein was approximately 6.5 in the presence of 8.2 mM potassium phosphate buffer. […] EST activity assays were subsequently performed on crude extracts from recombinant COS-1 cells expressing human EST enzyme using the optimal assay conditions thus identified: at a reaction pH of 6.5 in the presence of 1.25 mM MgCl2 with 0.05 μM estrone as the sulfate acceptor substrate, in 8.2 mM potassium phosphate buffer.

[4] = molecular target: T3, recombinant human liver EST enzyme; conditions: 150 mM NaCl; substrate estrone
Description: Estrone was used as the substrate to determine optimal assay conditions and, subsequently, to characterize the properties of human EST enzyme. […] Mg^2+ is known to increase the activities of several ST enzymes (J. S. Hernandez et al., Drug Metab. Dispos., 20, 413-422 (1992); I. A. Aksoy et al., Druc, Metab. Dispos., 21, 268-276 (1993)).

[5] = molecular target: T2, recombinant human liver DHEA ST enzyme; conditions: 75 mM NaCl; substrate DHEA
Method: The previously described EST and DHEA ST activity assays were used to measure ST activities of recombinant human liver EST enzyme and DHEA ST enzyme, respectively, wherein NaCl concentration in the reaction mixture was made 0.6 to 150 mM by the addition of 5 μL of a concentrated aqueous NaCl solution prior to incubation.

[6] = Thermal inactivation of ST activity; assay type: physicochemical, human; conditions: 15 minutes preincubation; mean ±SEM
Method: Aliquots of recombinant COS-1 cell extracts were incubated at 31°, 33°, 35°, 37°, 39°, 41°, 43° or 45° C. for 15 minutes prior to assay to determine thermal inactivation parameters. […] For the thermal inactivation experiment, aliquots of HSS from COS-1 cells transfected with EST cDNA or DHEA ST cDNA were diluted 1:2 (v/v) with 5 mM potassium phosphate buffer, pH 6.5, preincubated at various temperatures for 15 minutes and was then placed on ice. An aliquot of the same preparation was kept on ice as a control. Each aliquot was then diluted further for assay of the ST activity being measured. Values for controls were determined at each temperature studied. Data obtained during thermal inactivation and DCNP inhibition studies were analyzed with the GraphPAD InPlot curve-fitting program (GraphPAD InPlot Software, San Diego, Calif.).

[7] = first EST cDNA column, estrone 0.05 μM, DHEA 5 μM, 4-nitrophenol 4 μM, dopamine 60 μM, 1 unit = 1 nmol sulfated product per hour at 37° C.
[8] = second EST cDNA column, same substrate concentrations

| Molecule | sulfation catalyzed by the protein encoded by the human liver EST cDNA [1] | ST enzymatic activity, EST cDNA, Average [1] | ST enzymatic activity, EST cDNA, Expt. 1 [1, 7] | ST enzymatic activity, EST cDNA, Expt. 1 [1, 8] | further results |
| --- | --- | --- | --- | --- | --- |
| O=[N+]([O-])c1ccc(O)cc1 [4-Nitrophenol, 4-nitrophenol] | ~ 5 units/mg protein | 5.2 units/mg protein | 3.4 units/mg protein | 6.9 units/mg protein |  |
| C[C@]12CC[C@H](O)CC1=CC[C@@H]1[C@@H]2CC[C@]2(C)C(=O)CC[C@@H]12 [DHEA, dehydroepiandrosterone] | ~ 2 units/mg protein | 2.3 units/mg protein | 1.3 units/mg protein | 3.3 units/mg protein | Km [2]: 2.6 µM; Km [3]: 0.85 µM |
| NCCc1ccc(O)c(O)c1 [Dopamine, dopamine] | not | 0.0 units/mg protein | 0.0 units/mg protein | 0.0 units/mg protein |  |
| C[C@]12CC[C@@H]3c4ccc(O)cc4CC[C@H]3[C@@H]1CCC2=O [Estrone] | ~ 9 units/mg protein | 8.8 units/mg protein | 6.0 units/mg protein | 11.5 units/mg protein | Km [2]: 3.1 µM; sulfotransferase activity relative to other sulfate acceptor substrates (human EST enzyme; compared with estradiol-17β, ethinyl estradiol, or DHEA): greater sulfotransferase activity; estrone concentration giving maximal enzymatic activity (human EST enzyme; range 0.01 to 0.10 μM tested): 0.05 µM; Km [3]: 0.17 µM |
| [Cl-].[Cl-].[Mg+2] [Mg^2+, MgCl2] |  |  |  |  | increase of EST activity (human EST enzyme; 1.25 mM Mg2+, estrone as substrate): 20% |
| [Cl-].[Na+] [NaCl] |  |  |  |  | increase of EST activity [4]: 86%; peak activation of DHEA ST activity [5]: 62% |
| B1 |  |  |  |  | temperature at which 50% inactivation of activity occurred [6]: 38.2±0.12 °C |

Source: patent US5744355A, “cDNA cloning and expression of human liver estrogen sulfotransferase” (Mayo Foundation for Medical Education and Research, priority 1995, dated 1998)
